How the values were obtained:
Preliminary salt screen = format: physicochemical; details: equi-millimolar base and acid, 2-propanol or acetonitrile, alternative solvents
Description: Test tubes (4 mL), provided with magnetic stir bars, were charged with equi-milimolar amounts of (R)-3-((E)-2-(pyrrolidin-3-yl)vinyl)-5-(tetrahydropyran-4-yloxy)pyridine base and the acid of interest (neat) and dissolved with 500 μL of either 2-propanol or acetonitrile with the aid of heat.
If no precipitation occurred, the solvent was evaporated under a nitrogen stream with moderate heating and an alternative solvent was tried. Alternative solvents included acetone, ethyl acetate, isopropyl acetate, absolute ethanol, acetonitrile, hexane, tert-butanol, tert-butyl acetate, and blends thereof.
The use of alcohols was avoided in the case of sulfonic acids.

panel of 65 receptors = experiment: Multiple receptor screening assay; format: binding; details: single concentration of 10 μM
Description: (R)-3-((E)-2-(Pyrrolidin-3-yl)vinyl)-5-(tetrahydropyran-4-yloxy)pyridine or a salt thereof was tested for selectivity against a panel of 65 receptors.

normal rats = experiment: Novel object recognition (NOR) task; format: in vivo, rat; details: for NOR time after dosing with statistically significant effect (out to / up to): 0.004 μmol/kg oral (FIG. 2)
Description: Memory was assessed by using a three-trial novel object recognition test (Luine et al., Pharm. Biochem. Behav. 74, 213-220 (2002)). On the first day (exploratory trial), rats were allowed to explore an open arena (44.5×44.5×30.5 cm) for 6 min. On the second day (acquisition trial), rats were allowed to explore the same arena in the presence of two identical objects (both object A) for 3 min. On the third day (retention or recall trial), performance was evaluated by allowing the same animal to re-explore the arena for 3 min in the presence of two different objects: the familiar object A and a novel object B. An inter-trial interval of 24 h was imposed between the three NOR trials. Recognition memory was assessed by comparing the time spent exploring a novel (object B) versus a familiar (object A) object during the recall trial. Recognition index was assessed for each animal and expressed as a ratio ((time B/time A+time B)×100).
(R)-3-((E)-2-(Pyrrolidin-3-yl)vinyl)-5-(tetrahydropyran-4-yloxy)pyridine or a salt thereof improved long-term visual episodic/declarative memory as assessed by novel object recognition (NOR) task following oral dosing in normal rats. […] In the two “recall only” sessions; subset of animals were orally dosed with water on day 1 (i.e., exploratory session) and day 2 (i.e., acquisition session) and then orally dosed either with 1.1 μmol/kg (R)-3-((E)-2-(pyrrolidin-3-yl)vinyl)-5-(tetrahydropyran-4-yloxy)pyridine or a salt thereof (left panel) or 0.04 μmol/kg (right panel) on day 3 (i.e., recall session). […] In the Figure, the dashed line at 65% denotes subjective criteria for biological cognitive enhancing activity. *P<0.05.
(R)-3-((E)-2-(Pyrrolidin-3-yl)vinyl)-5-(tetrahydropyran-4-yloxy)pyridine or a salt thereof was evaluated for its duration of effect in the NOR task in normal rats. […] In the Figure, the dashed line at 65% denotes subjective criteria for biological cognitive enhancing activity (*P<0.05).

[1] = design: species or system human
Description: Therefore any variation of (R)-3-((E)-2-(pyrrolidin-3-yl)vinyl)-5-(tetrahydropyran-4-yloxy)pyridine or a salt thereof metabolism in human due to CYP polymorphism is expected to be less than 2 fold due to the significant renal clearance and low hepatic clearance.

Compound	Result of preliminary salt screen (physical form obtained) (Preliminary salt screen)	further results
O=C(O)c1ccc2ccccc2c1O [1-Hydroxy-2-naphthoic (Xinafoic)]	brown gum	
CC(=O)Nc1ccc(C(=O)O)cc1 [4-Acetamidobenzoic]	oil	
O=C(O)c1ccc(O)cc1 [4-Hydroxybenzoic]	tacky gum	
COc1ccc(C(=O)O)cc1 [4-Methoxybenzoic]	Oil	
CC1(C)[C@@H](C(=O)O)CC[C@@]1(C)C(=O)O [(1 R,3S)-(+)-Camphoric]	oil	
CC1(C)[C@@H]2CC[C@@]1(CS(=O)(=O)O)C(=O)C2 [(1 S)-(+)-1 O-Camphorsulfonic]	oil	
C(=C\[C@H]1CCNC1)/c1cncc(OC2CCOCC2)c1.O=C(O)C[C@H](O)C(=O)O [(R)-3-((E)-2-(pyrrolidin-3-yl)vinyl)-5-(tetrahydropyran-4-yloxy)pyridine mono-L-malate]	Crystals	
O=C(O)CCCCC(=O)O [Adipic]	oil	
O=C(O)CC(O)(CC(=O)O)C(=O)O [Citric]	tacky gum	
C(=C\[C@H]1CCNC1)/c1cncc(OC2CCOCC2)c1 [Compound A, (R)-3-((E)-2-(pyrrolidin-3-yl)vinyl)-5-(tetrahydropyran-4-yloxy)pyridine]		Multiple receptor screening assay, receptors hit (panel of 65 receptors): only to neuronal nicotinic receptors; Multiple receptor screening assay, receptors hit (panel of 65 receptors; listed as (R)-3-(2-(pyrrolidin-3-yl)vinyl)-5-((tetrahydro-2H-pyran-4-yl)oxy)pyridine): Only nicotinic; NOR time after dosing with statistically significant effect (out to / up to) (normal rats): ≤ 8 h; NOR time after dosing with statistically significant effect (out to / up to) (normal rats; listed as (R)-3-((E)-2-(pyrrolidin-3-yl)vinyl)-5-(tetrahydropyran-4-yloxy)pyridine): up to 8 h; NOR time after dosing with statistically significant effect (out to / up to) (normal rats; listed as Formula I): ≤ 8 h; NOR doses with statistically significant effect (as low as) (normal rats; FIG. 1): ≥ 0.004 µM/kg; NOR minimum effect dose (MED) level (normal rats; follow-up NOR study, oral, rats): 0.004 µmol/kg; NOR recognition index, recall only sessions (normal rats; single oral administration on day 3, 1.1 μmol/kg or 0.04 μmol/kg): recognition indexes significantly above controls; variation of metabolism due to CYP polymorphism [1]: less than 2 fold; renal clearance contribution to total clearance ([1]; human): more than 50%
O=C[C@H](O)[C@@H](O)[C@H](O)[C@H](O)C(=O)O [D-glucuronic]	brown gum	
Cl [Hydrochloric]	red oil	
O=C(O)/C=C\C(=O)O [Maleic]	Oil	
O=C(O)CC(=O)O [Malonic]	Oil	
CS(=O)(=O)O [Methanesulfonic]	Oil	
O=C(O)CCC(=O)O [Succinic]	red oil	
Cc1ccc(S(=O)(=O)O)cc1.O [p-Toluenesulfonic.H20]	Oil	
Fumaric	oil	
L-Tartaric	Oil	
